Experimental findings from PMC5042876 (Journal of the American Chemical Society, 2016) are described below.

Substitutions are numbered along the chain they refer to.

The target of data set [1] is wild-type PntM (CYP161C2) (Streptomyces arenae, UniProt E3VWI3). In words: Substrate binding assay.
Data set [2] addresses T1, PntM F232A (Streptomyces arenae, UniProt E3VWI3, F232A).
T1 sequence (E3VWI3 1-398 F232A): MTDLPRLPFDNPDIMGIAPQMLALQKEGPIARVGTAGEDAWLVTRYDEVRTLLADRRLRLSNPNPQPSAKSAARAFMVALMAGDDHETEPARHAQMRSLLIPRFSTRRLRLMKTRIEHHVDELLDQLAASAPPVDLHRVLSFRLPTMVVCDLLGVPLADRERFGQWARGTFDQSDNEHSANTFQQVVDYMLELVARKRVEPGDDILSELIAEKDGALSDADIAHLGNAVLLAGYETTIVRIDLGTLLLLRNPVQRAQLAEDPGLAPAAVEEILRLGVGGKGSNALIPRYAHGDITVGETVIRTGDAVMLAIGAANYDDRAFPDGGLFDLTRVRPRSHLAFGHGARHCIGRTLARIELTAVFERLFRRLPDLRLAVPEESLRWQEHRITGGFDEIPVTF
As to the kind of experiment: Substrate binding assay.

The target in a further data set is T2, PntM-F232G (Streptomyces arenae, UniProt E3VWI3, F232G).
T2 sequence (E3VWI3 1-398 F232G): T1 sequence (E3VWI3 1-398 F232A) with A232G
In words: Substrate binding assay.

Data set [3] has as its target T3, PntM F232L (Streptomyces arenae, UniProt E3VWI3, F232L).
T3 sequence (E3VWI3 1-398 F232L): T1 sequence (E3VWI3 1-398 F232A) with A232L
In words: Substrate binding assay.

Data set [4] addresses T4, PntM M81A (Streptomyces arenae, UniProt E3VWI3, M81A).
T4 sequence (E3VWI3 1-398 M81A): T1 sequence (E3VWI3 1-398 F232A) with M81A, A232F
As to the kind of experiment: Substrate binding assay.

Data set [5] has as its target T5, PntM M81C (Streptomyces arenae, UniProt E3VWI3, M81C).
T5 sequence (E3VWI3 1-398 M81C): T1 sequence (E3VWI3 1-398 F232A) with M81C, A232F
As to the kind of experiment: Substrate binding assay.

Data set [6] has as its target T6, PntM M77S (Streptomyces arenae, UniProt E3VWI3, M77S).
T6 sequence (E3VWI3 1-398 M77S): T1 sequence (E3VWI3 1-398 F232A) with M77S, A232F
As to the kind of experiment: Substrate binding assay.

Data set [7] addresses T7, PntM M81C-BME (Streptomyces arenae, UniProt E3VWI3, M81C).
T7 sequence (E3VWI3 1-398 M81C): T1 sequence (E3VWI3 1-398 F232A) with M81C, A232F
In words: Substrate binding assay.

In the next data set the target is T8, PntM F232Y (Streptomyces arenae, UniProt E3VWI3, F232Y).
T8 sequence (E3VWI3 1-398 F232Y): T1 sequence (E3VWI3 1-398 F232A) with A232Y
In words: Substrate binding assay, PntM F232Y. Conditions: PntM F232Y mutant.

The target of another data set is T9, PntM F232H (Streptomyces arenae, UniProt E3VWI3, F232H).
T9 sequence (E3VWI3 1-398 F232H): T1 sequence (E3VWI3 1-398 F232A) with A232H
In words: Substrate binding assay, PntM F232H. Conditions: PntM F232H mutant.

Data set [8] concerns the target T1, PntM F232A. In words: Steady-state kinetics and product profile, PntM F232A. In kind it is biochemical. The settings on record: F232A mutant.
In data set [9] the target is T3, PntM F232L. In words: Steady-state kinetics and product profile, PntM F232L. The data set is classed as biochemical. The settings on record: F232L mutant.
For data set [10], the target named is T4, PntM M81A. In words: Steady-state kinetics and product profile, PntM M81A. The data set is classed as biochemical. Conditions: M81A mutant.
Data set [11] has as its target T5, PntM M81C. As to the kind of experiment: Steady-state kinetics and product profile, PntM M81C. The data set is classed as biochemical. Conditions: M81C mutant.
Data set [12] addresses T6, PntM M77S. As to the kind of experiment: Steady-state kinetics and product profile, PntM M77S. The data set is classed as biochemical. The settings on record: M77S mutant.
Data set [13] deals with T7, PntM M81C-BME. As to the kind of experiment: Steady-state kinetics and product profile, PntM M81C-BME. The data set is classed as biochemical. The settings on record: M81C-BME mutant.
The mark [14] stands for this setting: comparator not stated, figures fit comparison with M81C.

Sequence of wild-type PntM (CYP161C2) (E3VWI3 whole entry): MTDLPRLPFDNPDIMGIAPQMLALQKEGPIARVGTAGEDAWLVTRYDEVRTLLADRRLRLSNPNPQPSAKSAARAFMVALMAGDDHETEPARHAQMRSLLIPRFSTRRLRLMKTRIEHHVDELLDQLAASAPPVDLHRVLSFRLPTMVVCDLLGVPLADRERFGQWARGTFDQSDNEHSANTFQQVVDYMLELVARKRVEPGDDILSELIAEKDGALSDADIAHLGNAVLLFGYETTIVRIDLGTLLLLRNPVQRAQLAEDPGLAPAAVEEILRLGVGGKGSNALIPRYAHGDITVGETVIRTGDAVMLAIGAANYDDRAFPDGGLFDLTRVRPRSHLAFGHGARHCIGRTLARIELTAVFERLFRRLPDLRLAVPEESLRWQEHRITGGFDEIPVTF

In general, Kd refers to the equilibrium constant for the complex coming apart. In the case of `CC1(C)C[C@H]2C[C@@H](C(=O)O)[C@@H]3COC(=O)[C@]4(CO4)[C@]23C1` [compound 7, 6,7-dihydropentalenolactone F], in data set [1], the Kd turned out to be 170 ± 17 µM and the “binding weaker than natural substrate 2” value is on record as approximately 25 times. In addition, in [1] (wild-type PntM, UV shift from 420 nm to 390 nm), the P450 binding spectrum result is given as “normal Type I P450 binding spectrum”.

For the molecule `CC1(C)C[C@H]2C=C(C(=O)O)[C@@H]3COC(=O)[C@]4(CO4)[C@]23C1` [compound 2, pentalenolactone F], the Kd worked out at 270 ± 85 µM on PntM F232A [2]; 225 ± 45 µM on PntM-F232G; 160 ± 12 µM on PntM F232L [3]; 340 ± 90 µM at PntM M81A [4]; 43 ± 3 µM on PntM M81C [5]; 115 ± 8 µM on PntM M77S [6]. In addition, the Kd at PntM M81C-BME [7] was determined as 31 ± 1 µM; in [1] it was 7.2 ± 0.8 µM. The “KD greater than that of wild-type PntM” value on PntM M81C [5] and on PntM M81C-BME [7] was 4-6 fold each time. For the same molecule, the binding of substrate result on PntM F232Y and at PntM F232H was “did not bind” each time. In addition, the “lower kcat/Km than wild type PntM” value at PntM F232A [8] is given as more than 60 fold. Further, the “product profile (GC-MS)” value is listed as “exclusively pentalenolactone” at PntM F232A [8]; “no change in product profile” at PntM M81A [10]; “exclusive formation of the oxidative rearrangement product 1” on PntM M81C [11]; “no change in product profile” on PntM M77S [12]; “no change in product profile” on PntM M81C-BME [13]. For the same molecule, the “decrease in kcat compared to wild type PntM” value at PntM F232L [9] is on record as 20 fold. Moreover, the “reduction in Km compared to wild type PntM” value at PntM F232L [9] is 3 fold. Moreover, the “reduction in kcat/Km compared to wild type PntM” value on PntM F232L [9] was 7 fold. In addition, the “product profile (GC-MS of total product mixture)” value at PntM F232L [9] (no detectable hydroxylation products) is “only the natural oxidative rearrangement product, pentalenolactone (1)”. The less active at PntM M81A [10] (setting [14]) and at PntM M77S [12] (setting [14]) was 5-15 fold throughout. In addition, the “reduction in kcat/Km compared to wild-type” value on PntM M81C [11] is on record as 10 fold.
